Experimental data taken from patent publication US20120276015A1, “Optical in vivo Imaging Contrast Agents and Methods of Use” (priority 2005, published 2012).

System: sites of inflammation
Assay: In vivo imaging of collagen-induced arthritis (CIA) mice, qualitative analysis of targeting
Design: species or system Balb/c mice
Settings: inflamed paw
Procedure: Inflammation was modeled by inducing polyarticular collagen-induced arthritis (CIA) in 4-6 week old female Balb/c mice (Charles River). Antibody mediated CIA was induced by intravenous (IV; tail vein) injection of 2 mg Arthrogen-CIA Monoclonal Antibody Blend (Chemicon). Three days after antibody treatment, each mouse received 50 μg Lipopolysaccharide (LPS; Chemicon) intraperitoneally (IP). Seven days after the initial injection, the mice had recovered from the LPS toxicity and symptoms of arthritis were observed. Mice were monitored daily and scored for paw and joint swelling based on the following scale: • 0: Normal • 1: Mild but definite swelling of ankle or wrist or swelling limited to individual digits • 2: Moderate redness and swelling of ankle and wrist • 3: Severe redness and swelling of the entire paw including digits (none of the study mice reached this stage)
Mice were injected with the present contrast agent when they reached level 2, between five and ten days after the LPS injection.
Contrast agents were introduced systemically by IV injection. A 29-guage needle was used to inject 100 μl of 1% solids in water (without buffer salts or saline) containing 2% Pluronic F-127 via the lateral tail vein. The tail was stroked lengthwise three times with an alcohol saturated pad to dilate the blood vessels prior to injection. […]

BSA conjugate: BSA conjugate used as comparison contrast agent; labeled the whole paw
image resolution of labeling: labeled the whole paw
